Where two headings read alike, the source gives them in different places.
Tests used:
A549 PARP2-KO cell line = experiment: Cellular PARylation inhibition, high-content imaging, PARP2-KO; type: cell-based; details: for IC50: Homo sapiens
MDA-MB-436 = experiment: Anti-proliferative activity (CellTiter-Glo, 7 days), MDA-MB-436; type: cell-based, human; details: for IC50: Homo sapiens, MDA-MB-436, 168 h, BRCA1-mutated, 7 days, read-out: MDA-MB-436 IC50; for BRCA1 mutation/WT selectivity fold: MDA-MB-231 vs MDA-MB-436
DLD-1 BRCA2^-/- = experiment: Anti-proliferative activity (CellTiter-Glo, 7 days), DLD-1 BRCA2-/-; type: cell-based, human; details: for BRCA2 mutation/WT selectivity fold: DLD-1 WT vs DLD-1 BRCA2^-/-; for IC50: Homo sapiens, DLD-1, 168 h, BRCA2-mutated, 7 days
PARP2 [1] = target: T1, PARP2 (Homo sapiens, UniProt Q9UGN5); experiment: Inhibition of PARP2 enzyme activity (chemiluminescence); type: biochemical
T1 construct: purchased BPS 80502

A549 WT = experiment: Cellular PARylation inhibition, high-content imaging, A549 WT; type: cell-based; details: Homo sapiens, PARylation at the cellular level
Method: The inhibitory effect of the compounds on PARP1/PARP2 enzyme activity at the cellular level was detected using high-content imaging. A549 WT, PARP1-KO and PARP2-KO cell lines were established in-house, and the cells were revived. After the cells were stable, a sufficient number of cells were collected and 100 µL of the cell suspension was seeded into a 96-well plate. The next day, the example compounds with serially diluted concentrations were added. […] The plate was incubated for 1.5 hours (A549 WT and PARP2-KO cell lines) or 2 hours (PARP1-KO cell line). After removing the supernatant, 0.4 mM H2O2 was added and incubation was carried out for 10 minutes (A549 WT and PARP2-KO cell lines) or 1.5 mM H2O2 was added and incubation was carried out for 15 minutes (PARP1-KO cell line) to induce extensive cellular DNA damage. After removing the supernatant, the cells were fixed with 4% paraformaldehyde for 20 minutes, followed by treatment with 0.5% Triton X-100 for 20 minutes to increase the permeability of the cell membrane. After that, the cells were incubated with 3% BSA for 1 hour to prevent non-specific binding. […] The cell nuclei were stained for 30 minutes by adding 50 µL DAPI (invitrogen, R37606). After washing twice with PBS, images were acquired on OPERETTA CLS™ (PE) by scanning the cells under a 20x water objective lens in non-confocal mode, with 5 fields of view captured per well. […] The inhibition rate was calculated using the fluorescence values from the Max and Min wells, and the dose-response curve was fitted using the analysis software GraphPad Prism 5 to obtain the IC50 value of each compound for the enzyme activity.

MDA-MB-231 = experiment: Anti-proliferative activity (CellTiter-Glo, 7 days), MDA-MB-231; type: cell-based, human; details: for IC50: Homo sapiens
PARP1 [2] = target: T2, PARP1 (Homo sapiens, UniProt P09874); experiment: DNA trapping capability of PARP1 (HTRF); type: biochemical
T2 construct: purchased BPS 80501

DLD-1 WT = experiment: Anti-proliferative activity (CellTiter-Glo, 7 days), DLD-1 WT; type: cell-based, human; details: for inhibition on cell proliferation at the highest concentration: BRCA2-normal DLD-1 cell line, 10 µM; for IC50: Homo sapiens, DLD-1, 168 h, BRCA2-normal, 7 days
Method: The anti-proliferation experiment of the compounds on tumour cells adopted the most widely used ATP concentration-based detection method at present. MDA-MB-231 and MDA-MB-436 cell lines were obtained from ATCC, DLD-1 human colourectal adenocarcinoma epithelial cells and DLD-1 BRCA2^-/- cells were obtained from Horizon, and the cells were revived. After the cells were stable, the cells were collected. When the viable cell count exceeded 90%, 450-500 cells were seeded into a 384-well plate. The next day, the example compounds with serially diluted concentrations were added. Only buffer was added to the Max well, and 50 µM AZD2281 was added to the Min well. The plate was incubated for 7 days, and on the eighth day, CellTiter-Glo® reagent (Promega, G7573) was added. The plate was incubated at room temperature for 30 minutes, and the values were read on Envision (PE). The inhibition rate was calculated using the fluorescence values from the Max and Min wells, and the dose-response curve was fitted using the analysis software GraphPad Prism 5 to obtain the IC50 value of each compound for the enzyme activity.

PARP2 [3] = target: T1, PARP2; experiment: DNA trapping capability of PARP2 (HTRF); type: biochemical
A549 PARP1-KO cell lines = experiment: Cellular PARylation inhibition, high-content imaging, PARP1-KO; type: cell-based; details: for IC50: Homo sapiens, A549, PARylation at the cellular level
PARP1 [4] = target: T2, PARP1; experiment: Inhibition of PARP1 enzyme activity (chemiluminescence); type: biochemical; details: for PARP1/2 selectivity fold: PARP2 vs PARP1
[5] = Pharmacokinetic study of single administration in mice; type: in vivo; details: CD-1 mice
Method: Male CD-1 mice were used as test animals. The plasma drug concentrations of the compounds were determined and the pharmacokinetic parameters were evaluated after a single administration. Healthy adult male CD-1 mice were selected. The candidate compound was added to 10% DMSO, vortexed and sonicated. After complete dissolution, 30% PEG400 was added, followed by vortexing and sonication, and 60% double-distilled water was added to prepare a clear solution for later use. After the mice were intravenously injected at a dose of 2 mg/kg and orally administered at a dose of 10 mg/kg, whole blood was collected at 5 minutes, 15 minutes, 30 minutes, 1 hour, 2 hours, 4 hours, 8 hours, and 24 hours after administration to prepare plasma. After sample treatment, the drug concentration was analysed by LC-MS/MS method, and the pharmacokinetic parameters were calculated.

[6] = PARylation at the cellular level
[7] = MDA-MB-231, 168 h, BRCA1-normal, 7 days, read-out: MDA-MB-231 IC50
[8] = male, mouse, plasma, IV, 2 mg/kg
[9] = male, mouse, plasma, PO, 10 mg/kg

T1 sequence (Q9UGN5 whole entry): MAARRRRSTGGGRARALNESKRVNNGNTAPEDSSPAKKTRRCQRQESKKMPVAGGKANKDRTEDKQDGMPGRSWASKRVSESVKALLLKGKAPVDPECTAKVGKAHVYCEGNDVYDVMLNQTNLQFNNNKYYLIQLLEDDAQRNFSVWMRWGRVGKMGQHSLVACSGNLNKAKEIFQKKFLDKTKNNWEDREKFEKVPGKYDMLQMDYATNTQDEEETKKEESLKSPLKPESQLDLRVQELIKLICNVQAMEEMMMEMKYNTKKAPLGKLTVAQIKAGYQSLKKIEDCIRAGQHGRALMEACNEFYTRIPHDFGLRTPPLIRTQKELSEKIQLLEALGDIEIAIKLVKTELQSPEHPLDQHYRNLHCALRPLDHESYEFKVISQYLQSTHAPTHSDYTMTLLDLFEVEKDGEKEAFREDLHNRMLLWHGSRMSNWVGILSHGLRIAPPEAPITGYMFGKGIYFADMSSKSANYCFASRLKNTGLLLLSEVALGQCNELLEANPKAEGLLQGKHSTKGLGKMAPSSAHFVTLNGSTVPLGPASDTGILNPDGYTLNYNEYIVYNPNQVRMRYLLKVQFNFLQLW
T2 sequence (P09874 whole entry): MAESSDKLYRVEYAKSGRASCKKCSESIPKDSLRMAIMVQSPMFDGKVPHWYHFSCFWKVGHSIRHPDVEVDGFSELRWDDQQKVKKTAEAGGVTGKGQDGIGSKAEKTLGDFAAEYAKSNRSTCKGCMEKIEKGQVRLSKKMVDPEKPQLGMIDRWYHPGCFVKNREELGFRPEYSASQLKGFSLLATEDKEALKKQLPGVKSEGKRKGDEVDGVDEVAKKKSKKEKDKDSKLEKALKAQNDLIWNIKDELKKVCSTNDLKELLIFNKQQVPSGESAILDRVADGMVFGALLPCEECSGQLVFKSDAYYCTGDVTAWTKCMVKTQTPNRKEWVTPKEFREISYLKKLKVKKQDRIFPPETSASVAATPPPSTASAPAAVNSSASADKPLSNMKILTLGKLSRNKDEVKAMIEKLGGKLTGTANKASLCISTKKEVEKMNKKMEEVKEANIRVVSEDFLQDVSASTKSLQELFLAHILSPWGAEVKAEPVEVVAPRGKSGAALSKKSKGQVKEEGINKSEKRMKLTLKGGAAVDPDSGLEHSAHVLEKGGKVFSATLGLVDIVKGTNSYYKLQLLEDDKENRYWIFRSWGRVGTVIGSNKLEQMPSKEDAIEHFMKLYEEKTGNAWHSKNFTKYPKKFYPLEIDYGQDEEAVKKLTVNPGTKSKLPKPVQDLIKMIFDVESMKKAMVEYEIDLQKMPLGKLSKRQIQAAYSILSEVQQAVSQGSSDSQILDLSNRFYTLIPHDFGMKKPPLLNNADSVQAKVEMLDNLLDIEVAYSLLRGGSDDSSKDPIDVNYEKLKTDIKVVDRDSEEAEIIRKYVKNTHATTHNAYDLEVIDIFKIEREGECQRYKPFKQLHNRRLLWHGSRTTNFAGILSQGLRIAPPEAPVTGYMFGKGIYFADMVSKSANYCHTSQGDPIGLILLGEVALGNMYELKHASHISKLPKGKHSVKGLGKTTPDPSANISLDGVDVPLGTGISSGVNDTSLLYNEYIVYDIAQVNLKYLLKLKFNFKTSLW

SMILES | PARP1 KO/PARP2 KO selectivity fold (A549 PARP2-KO cell line; [6]) | IC50 (MDA-MB-436) | BRCA1 mutation/WT selectivity fold (MDA-MB-436) | BRCA2 mutation/WT selectivity fold (DLD-1 BRCA2^-/-) | IC50 (DLD-1 BRCA2^-/-) | IC50 (PARP2 [1]) | IC50 (A549 WT) | IC50 (MDA-MB-231; [7]) | EC50 (PARP1 [2]) | inhibition on cell proliferation at the highest concentration (DLD-1 WT) | IC50 (DLD-1 WT) | EC50 (PARP2 [3]) | IC50 (A549 PARP1-KO cell lines) | IC50 (PARP1 [4]) | PARP1/2 selectivity fold (PARP1 [4]) | other results
CCc1c(N)c2ncc(CN3CCN(c4ccc(C(=O)NC)nc4F)CC3)cc2[nH]c1=O [Example 3, 5-(4-((8-Amino-7-ethyl-6-oxo-5,6-dihydro-1,5-naphthyridin-3-yl)methyl)piperazin-1-yl)-6-fluoro-N-methylpicolinamide] | >2468 fold | 1.27 nM | 5,828 fold | >1,972 fold | 5.07 nM | 8.7 nM | 5.9 nM | 7400 nM | 3.87 nM | no detectable inhibition | > 10000 nM | 249 nM | > 40000 nM | 0.41 nM | 21 fold | IC50 (A549 PARP2-KO cell line; A549, PARylation at the cellular level, read-out: PARP2-KO IC50): 16.2 nM; IC50 (MDA-MB-231; BRCA1-normal MDA-MB-231 cell line, read-out: IC50): 7400 nM; PARP1/2 selectivity fold (PARP1 [2]): 64 fold; inhibition on the enzyme activity at the highest concentration (A549 PARP1-KO cell lines; A549 PARP1-KO cell lines, 40 µM): no detectable inhibition
CCc1c(N)c2ncc(CN3CCN(c4ccc(C(=O)NC)nc4)CC3)cc2[nH]c1=O [Example 1, 5-(4-((8-Amino-7-ethyl-6-oxo-5,6-dihydro-1,5-naphthyridin-3-yl)methyl)piperazin-1-yl)-N-methylpicolinamide] | 660 fold | 16.4 nM | >608 fold | >538 fold | 18.6 nM | 52.8 nM | 14.4 nM | > 10000 nM | 1.78 nM | no detectable inhibition | > 10000 nM | 168 nM | 47700 nM | 0.49 nM | 108 fold | IC50 (A549 PARP2-KO cell line; A549, read-out: PARP2-KO IC50): 72.2 nM; inhibition on cell proliferation at the highest concentration (MDA-MB-231; BRCA1-normal MDA-MB-231 cell line, 10 µM): no detectable inhibition; Exposure inf ([5]; IV, 2 mg/kg): 38.222 µg·h/mL; Exposure last ([5]; IV, 2 mg/kg): 38.128 µg·h/mL; Exposure inf ([5]; PO, 10 mg/kg): 191.246 µg·h/mL; Exposure last ([5]; PO, 10 mg/kg): 189.56 µg·h/mL; Peak concentration ([5]; PO, 10 mg/kg): 15700 ng/mL; Time to peak ([5]; PO, 10 mg/kg): 2 h; clearance [5, 8]: 0.872 mL/min/kg; half-life [5, 8]: 2.81 h; Vd ([5]; male, mouse, plasma, IV, 2 mg/kg, read-out: Apparent volume of distribution): 0.218 L/kg; bioavailability [5, 9]: 100%; half-life [5, 9]: 3.51 h

Source: patent EP4620956A1, “PARP1 INHIBITORS” (Zhejiang Yangli Pharmaceutical Technology Co., Ltd., priority 2022, dated 2024)
